From patent US12186405B2, “Cleavable tetrazine used in bio-orthogonal drug activation” (TAGWORKS PHARMACEUTICALS B.V., priority 2016, dated 2025)

How the values were obtained:
[1] = Reactivity (second order rate constant k2) between TZ Triggers and TCO Activator 4.9 in MeCN at 20° C.; type: physicochemical
Experimental: The second order rate constant of the reaction (k2) between a TZ and TCO 4.9 was determined under pseudo first order conditions in MeCN at 20° C. using UV spectroscopic monitoring. […] From the decrease of this absorption, the half-life of the pseudo first order reaction between TZ and TCO was determined. The second order rate constant k2 was obtained by calculation from this half-life and the concentration of TCO

[2] = Stability of tetrazine (TZ) Triggers in a MeCN/PBS mixture
Experimental: (§1) 10 μL of a 25 mM TZ stock solution in DMSO (2.5×10^−7 mol TZ) was diluted with MeCN and PBS to a total volume of 1 mL. The aqueous solution was incubated at 20° C. or at 37° C. At selected time points, the TZ solution was analyzed by HPLC-PDA/MS.

[3] = system: LS174T colon carcinoma xenografts; experiment: In vivo on-tumor reaction between ADC and TCO activators (tumor blocking, ^111In-TCO probe uptake); design: species or system mouse; conditions: ADC (2 mg/kg), one hour later ^111In-TCO probe, 4 h after probe injection
Experimental: DOTA-PEG11-TCO probe 4.4 was labeled with indium-111 in 0.2 M ammonium acetate buffer (pH 6.0) for 10 min at 60° C. followed by a DTPA-challenge to complex any unreacted radiometal. The radiolabeling yield (>95%) and radiochemical purity (>95%) of the obtained ^111In-TCO probe was assessed by radio-ITLC and radio-RP-HPLC, respectively. The on-tumor reactivity between AVP0450-15.4 ADC and two different activators, sTCO—COOH (4.8) and sTCO-PEG11-OH (4.6) in two different doses (100 and 1000 eq with respect to ADC) was evaluated with an in vivo competition assay (tumor blocking), as previously described for a CC49-TCO-Dox conjugate and tetrazine-activators (R. Rossin et al., Bioconjug Chem 2016, 27, 1697-1706). Briefly, mice bearing subcutaneous LS174T colon carcinoma xenografts (n=4 per group) were administered the ADC (2 mg/kg) followed after 48 h by the activator and, one hour later, by the ^111In-TCO probe (1 eq with respect to ADC). The probe uptake in tumors was then compared with mice that received the ADC followed only by the ^111In-TCO probe (no blocking) and with mice that received the ^111In-TCO probe alone (complete blocking). All mice were euthanized 4 h after probe injection. Blood samples were obtained from heart puncture, tumors and other tissues of interest were dissected, blotted dry, weighed and counted in a gamma-counter.

[4] = Rate of release of Constructs from IEDDA adducts formed by activation of TZ Trigger with TCO Activator 4.9; type: physicochemical
Experimental: Then, 10 μL of a 50 mM TCO 4.9 stock solution in DMSO (5.0×10^−7 mol TCO) was added. After the complete disappearance of the pink color (this takes typically between 5 and 30 min, and is due to the IEDDA reaction between TZ and TCO thereby forming IEDDA adducts), the sample was diluted with PBS to a total volume of 1 mL (t=0). […] At selected time points, this solution was analyzed by HPLC-PDA/MS. The decrease of the IEDDA adduct absorption(s) and/or the rise of the leaving group absorption indicated the conversion of the release reaction. […] Alternatively, the rate of the release reaction can be indicated by the conversion (in %) after a certain reaction time (in hours).

[5] = Stability of TZ Triggers in 50% mouse serum/PBS; type: in vitro ADME; conditions: 37° C.
Experimental: The mixture was incubated at 37° C. […] The stability was determined as outlined in Example 5.

[6] = Rate of release of a Construct from the IEDDA adduct in 50% mouse serum/PBS; type: in vitro ADME; conditions: 37° C., 21 h
Experimental: 10 μL of a 25 mM TZ stock solution in DMSO (2.5×10^−7 mol TZ) was diluted with MeCN (50 μL), PBS (475 μL), and mouse serum (475 μL). Then, a stock solution of the appropriate TCO (20 μL 50 mM in DMSO; 1.0×10^−6 mol) was added, and the mixture was incubated at 37° C. At selected time points, aliquots (250 μL) were taken, diluted with cold MeCN (500 μL), stored at 4° C. for 30 min, and then centrifuged at 13400 rpm for 5 min. Part of the clear supernatant (250 μL) was diluted with water (500 μL) and the sample was analyzed by HPLC-PDA/MS.

[7] = Reactivity (k2) as Example 6 but assessed with sTCO 4.8; type: physicochemical; conditions: assessed with sTCO 4.8 and not TCO 4.9; MeCN at 20° C.
Experimental: A cuvette was filled with 3 mL of a 3.33 mM TCO solution in MeCN (1.0×10^−5 mol TCO) and this solution was equilibrated at 20° C. […] From the decrease of this absorption, the half-life of the pseudo first order reaction between TZ and TCO was determined. The second order rate constant k2 was obtained by calculation from this half-life and the concentration of TCO

[8] = Rate of release of Constructs as Example 7 but after reaction with sTCO 4.8; type: physicochemical; conditions: Method E: 5% MeCN in PBS at 37° C.
Experimental: […] After the complete disappearance of the pink color (this takes typically between 5 and 30 min, and is due to the IEDDA reaction between TZ and TCO thereby forming IEDDA adducts), the sample was diluted with PBS to a total volume of 1 mL (t=0). […] At selected time points, this solution was analyzed by HPLC-PDA/MS. The decrease of the IEDDA adduct absorption(s) and/or the rise of the leaving group absorption indicated the conversion of the release reaction. […] Alternatively, the rate of the release reaction can be indicated by the conversion (in %) after a certain reaction time (in hours).

physchem = conditions: buffer
Experimental: as §1

[9] = Rate of release of Constructs from IEDDA adducts formed by activation of TZ Trigger with TCO Activator 4.9; type: physicochemical; conditions: Method F: MeCN at 37° C.; 23 h
[10] = Method A: 33% MeCN in PBS at 20° C., 16 h
[11] = Method C: 20% MeCN in PBS at 37° C., 16 h

CC(OC(=O)N(C)Cc1ccccc1)c1nnc(-c2ccc(NC(=O)OC(C)(C)C)cc2)nn1 (centres unmarked) [Compound 2.48]
Reactivity k2 ([1]; TZ with TCO in MeCN at 20° C.): 1.46 M⁻¹ s⁻¹
half-life at 250 µM [2]: > 4800 h

O=C(NCCOCCOCCOCCOCCOCCOCCOCCOCCOCCO)[C@@H]1[C@@H]2CC/C=C/CC[C@@H]21 [Compound 4.6]
^111In-uptake in tumor ([3]; after 48 h activator 100 eq): 0.15 ± 0.05 % ID/g
^111In-uptake in tumor ([3]; after 48 h activator 1000 eq): 0.14 ± 0.52 % ID/g

CC(OC(=O)N(c1ccccc1)C(C)C)c1nnc(C(C)OC(=O)N(c2ccccc2)C(C)C)nn1 (mixture of isomers) [Compound 2.40]
Reactivity k2 ([1]; TZ with TCO in MeCN at 20° C.): 1.22 M⁻¹ s⁻¹
Release % (conversion) ([4]; Method C: 20% MeCN in PBS at 37° C., 22 h): 100% (22 h)

CC(OC(=O)N(C)c1ccccc1)c1nnc(-c2ccccc2)nn1 (racemic) [Compound 2.22]
Reactivity k2 ([1]; TZ with TCO in MeCN at 20° C.): 2.51 M⁻¹ s⁻¹

CC(OC(=O)OCc1ccccc1)c1nnc(C(C)OC(=O)OCc2ccccc2)nn1 (centres unmarked) [Compound 2.8]
Release % (conversion) [4, 10]: 100% (16 h)
half-life at 250 µM [2]: 6.5 h

CC(C)c1nnc(C(C)OC(=O)N(Cc2ccccc2)C(C)C)nn1 (centres unmarked) [Compound 2.42]
Reactivity k2 ([1]; TZ with TCO in MeCN at 20° C.): 0.21 M⁻¹ s⁻¹
Release % (conversion) [4, 11]: 100% (16 h)
half-life at 248 µM ([5]; 50% mouse serum in PBS, read-out: Stability t1/2 (converted)): 55 h
Release % (conversion) ([6]; Dienophile 4.8, endo isomer): 77% (21 h)
half-life at 250 µM [2]: 650 h

O=C(NCc1nnc(CNC(=O)Oc2ccccc2)nn1)Oc1ccccc1 [Compound 3.2]
Release % (conversion) ([4]; Method B: 33% MeCN in PBS at 37° C., 19 h): 25% (19 h)

CC(OC(=O)N(C)Cc1ccccc1)c1nnc(C(C)OC(=O)N(C)Cc2ccccc2)nn1 (mixture of isomers) [Compound 2.36]
Release % (conversion) [4, 11]: 100% (16 h)

CN(Cc1ccccc1)C(=O)OCc1nnc(CCN(C)C(=O)OC(C)(C)C)nn1 [Compound 2.24]
Reactivity k2 ([1]; TZ with TCO in MeCN at 20° C.): 4.6 M⁻¹ s⁻¹
Stability t1/2 [5]: 16 h
Release % (conversion) ([6]; Dienophile 4.0, axial isomer): 51% (21 h)

Cc1cc(C)cc(NC(=O)OC(C)c2nnc(-c3ccccc3)nn2)c1 (racemic) [Compound 2.17]
Reactivity k2 ([1]; TZ with TCO in MeCN at 20° C.): 4.5 M⁻¹ s⁻¹

CCN(Cc1nnc(-c2cccc(NC(=O)COCCOCCOCCOCCOCCOCCOCCOCCOCCOCCOC)c2)nn1)C(=O)Oc1ccc(COC(=O)Nc2ccc3c(C)cc(=O)oc3c2)cc1 [Compound 3.33]
Reactivity k2 ([1]; TZ with TCO in MeCN at 20° C. (cyclization series)): 4.7 M⁻¹ s⁻¹
Reactivity k2 [7]: 520 ([5]) M^−1 s^−1
Release % (conversion) ([4]; Method E: 5% MeCN in PBS at 37° C., 1 h): 50%
Release % (conversion) ([4]; Method E: 5% MeCN in PBS at 37° C., 4 h): 80%
Release % (conversion) ([4]; Method E: 5% MeCN in PBS at 37° C., 72 h): 90%
Release % (conversion) ([8]; 1 h): 20%
Release % (conversion) ([8]; 8 h): 80%
half-life (physchem): 200 h

CC(OC(=O)N(C)Cc1ccccc1)c1nnc(-c2ccc(N)cc2)nn1 (centres unmarked) [Compound 2.49]
Reactivity k2 ([1]; TZ with TCO in MeCN at 20° C.): 0.44 M⁻¹ s⁻¹
half-life at 250 µM [2]: > 4800 h

CC(OC(=O)c1ccccc1)c1nnc(C(C)OC(=O)c2ccccc2)nn1 (centres unmarked) [Compound 2.7]
Release % (conversion) [4, 10]: 96% (16 h)
half-life at 250 µM [2]: 18 h

CC(OC(=O)N(C)Cc1ccccc1)c1nnc(-c2ccccc2)nn1 (racemic) [Compound 2.21]
Reactivity k2 ([1]; TZ with TCO in MeCN at 20° C.): 2.54 M⁻¹ s⁻¹

O=C(OCc1nnc(-c2ccccc2)nn1)Oc1ccccc1 [Compound 2.18]
Release % (conversion) [9]: 10% (23 h)
half-life at 250 µM [2]: < 4 h

CC(C)c1nnc(COC(=O)N(C)Cc2ccccc2)nn1 [Compound 2.19]
Reactivity k2 ([1]; TZ with TCO in MeCN at 20° C.): 0.79 M⁻¹ s⁻¹
Stability t1/2 [5]: 32 h
Release % (conversion) ([6]; Dienophile 4.0, axial isomer): 61% (21 h)

CC(C)c1nnc(/C=C/COC(=O)Nc2ccccc2)nn1 [Compound 2.57]
Reactivity k2 ([1]; TZ with TCO in MeCN at 20° C.): 0.33 M⁻¹ s⁻¹
half-life at 250 µM (physchem): > 400 h

O=C(NCc1ccccc1)OCc1nnc(COC(=O)NCc2ccccc2)nn1 [Compound 2.4]
Reactivity k2 ([1]; TZ with TCO in MeCN at 20° C.): 24 M⁻¹ s⁻¹

O=C(NC1CCCC1c1nnc(-c2ccccc2)nn1)Oc1ccccc1 (centres unmarked) [Compound 3.25]
Release % (conversion) ([4]; Method G: 50% MeCN in PBS at 37° C., 16 h): 57% (16 h)
half-life (physchem): > 140 h

CC(OC(=O)NCc1ccccc1)c1nnc(C(C)OC(=O)NCc2ccccc2)nn1 (mixture of isomers) [Compound 2.5]
Reactivity k2 ([1]; TZ with TCO in MeCN at 20° C.): 1.5 M⁻¹ s⁻¹

O=C(O)[C@@H]1[C@@H]2CC/C=C/CC[C@@H]21 [Compound 4.8, (E-endo)-bicyclo[6.1.0]non-4-ene-9-carboxylic acid]
^111In-uptake in tumor ([3]; after 48 h activator 100 eq): 0.13 ± 0.03 % ID/g
^111In-uptake in tumor ([3]; after 48 h activator 1000 eq): 0.10 ± 0.03 % ID/g

O=C(Oc1ccccc1)N1CCCC1c1nnc(-c2ccccc2)nn1 (centres unmarked) [Compound 3.27]
Release % (conversion) ([4]; Method C: 20% MeCN in PBS at 37° C., 24 h): 49%
Release % (conversion) ([4]; Method C: 20% MeCN in PBS at 37° C., 48 h): 72%
half-life at 250 µM [2]: > 150 h

O=C(Nc1ccccc1)OC/C=C/c1nnc(-c2ccccc2)nn1 [Compound 2.53]
half-life at 250 µM [2]: > 400 h

CC(C)c1nnc(C(C)OC(=O)N(C)c2ccccc2)nn1 (racemic) [Compound 2.20]
Reactivity k2 ([1]; TZ with TCO in MeCN at 20° C.): 0.19 M⁻¹ s⁻¹
Release % (conversion) ([4]; Method C: 20% MeCN in PBS at 37° C., 1.3 h): 45%
Release % (conversion) [4, 11]: 100%
